# Experimental data as given in patent US11021444B2, “Antiviral compounds” (priority 2013, dated 2021).
# Where two headings read alike, the source gives them in different places.
# Assays:
# [1] = Cytotoxicity Determination (CCK-8, without addition of virus); type: cell-based; details: human, 50% cytotoxicity concentration (CC50)
# Outline: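 HEp-2 cells were seeded at 1,500 cells/well one day before compound addition. Compounds were tested without virus in duplicate over 7 points from 100 μM in 1/2 steps, with 1% final DMSO, 5 days at 37 °C, 5% CO2. Viability was read by CCK-8 after 3-4 hours.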
# [2] = target: recombinant RSV complex (Human respiratory syncytial virus A, UniProt P28887); assay: RSV Polymerase Inhibition Assay; type: biochemical
# Outline: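 10 nM recombinant RSV polymerase complex in Tris-HCl pH 7.5, 6 mM MgCl2 with RNA oligonucleotide template and radionucleotides, incubated 2 h at 30 °C with increasing inhibitor concentrations. Reaction stopped with EDTA; radiolabeled RNA product counted by scintillation.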
# [3] = system: Respiratory Syncytial Virus (RSV) long strain; assay: microbe, parasite or virus in culture; type: cell-based; details: human respiratory syncytial virus, Tables A and B list compounds by EC50 band
# Outline: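 HEp-2 cells infected with 100 TCID50 virus per well, compounds in duplicate, 9-point 1/3 dilutions from 100 μM or 1 μM, 1% DMSO. After 5 days at 37 °C, cell viability (CPE protection) read by CCK-8 absorbance at 450 nm, 630 nm background.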
# [4] = HEp-2, 120 h, read-out: 50% effective concentration (EC50), HEp-2 cells infected with RSV long strain, 5 days, CCK-8 readout
# [5] = 120 h, read-out: 50% effective concentration (EC50), HEp-2 cells infected with RSV long strain, 5 days, CCK-8 readout
# recombinant RSV complex, sequence (P28887 whole entry): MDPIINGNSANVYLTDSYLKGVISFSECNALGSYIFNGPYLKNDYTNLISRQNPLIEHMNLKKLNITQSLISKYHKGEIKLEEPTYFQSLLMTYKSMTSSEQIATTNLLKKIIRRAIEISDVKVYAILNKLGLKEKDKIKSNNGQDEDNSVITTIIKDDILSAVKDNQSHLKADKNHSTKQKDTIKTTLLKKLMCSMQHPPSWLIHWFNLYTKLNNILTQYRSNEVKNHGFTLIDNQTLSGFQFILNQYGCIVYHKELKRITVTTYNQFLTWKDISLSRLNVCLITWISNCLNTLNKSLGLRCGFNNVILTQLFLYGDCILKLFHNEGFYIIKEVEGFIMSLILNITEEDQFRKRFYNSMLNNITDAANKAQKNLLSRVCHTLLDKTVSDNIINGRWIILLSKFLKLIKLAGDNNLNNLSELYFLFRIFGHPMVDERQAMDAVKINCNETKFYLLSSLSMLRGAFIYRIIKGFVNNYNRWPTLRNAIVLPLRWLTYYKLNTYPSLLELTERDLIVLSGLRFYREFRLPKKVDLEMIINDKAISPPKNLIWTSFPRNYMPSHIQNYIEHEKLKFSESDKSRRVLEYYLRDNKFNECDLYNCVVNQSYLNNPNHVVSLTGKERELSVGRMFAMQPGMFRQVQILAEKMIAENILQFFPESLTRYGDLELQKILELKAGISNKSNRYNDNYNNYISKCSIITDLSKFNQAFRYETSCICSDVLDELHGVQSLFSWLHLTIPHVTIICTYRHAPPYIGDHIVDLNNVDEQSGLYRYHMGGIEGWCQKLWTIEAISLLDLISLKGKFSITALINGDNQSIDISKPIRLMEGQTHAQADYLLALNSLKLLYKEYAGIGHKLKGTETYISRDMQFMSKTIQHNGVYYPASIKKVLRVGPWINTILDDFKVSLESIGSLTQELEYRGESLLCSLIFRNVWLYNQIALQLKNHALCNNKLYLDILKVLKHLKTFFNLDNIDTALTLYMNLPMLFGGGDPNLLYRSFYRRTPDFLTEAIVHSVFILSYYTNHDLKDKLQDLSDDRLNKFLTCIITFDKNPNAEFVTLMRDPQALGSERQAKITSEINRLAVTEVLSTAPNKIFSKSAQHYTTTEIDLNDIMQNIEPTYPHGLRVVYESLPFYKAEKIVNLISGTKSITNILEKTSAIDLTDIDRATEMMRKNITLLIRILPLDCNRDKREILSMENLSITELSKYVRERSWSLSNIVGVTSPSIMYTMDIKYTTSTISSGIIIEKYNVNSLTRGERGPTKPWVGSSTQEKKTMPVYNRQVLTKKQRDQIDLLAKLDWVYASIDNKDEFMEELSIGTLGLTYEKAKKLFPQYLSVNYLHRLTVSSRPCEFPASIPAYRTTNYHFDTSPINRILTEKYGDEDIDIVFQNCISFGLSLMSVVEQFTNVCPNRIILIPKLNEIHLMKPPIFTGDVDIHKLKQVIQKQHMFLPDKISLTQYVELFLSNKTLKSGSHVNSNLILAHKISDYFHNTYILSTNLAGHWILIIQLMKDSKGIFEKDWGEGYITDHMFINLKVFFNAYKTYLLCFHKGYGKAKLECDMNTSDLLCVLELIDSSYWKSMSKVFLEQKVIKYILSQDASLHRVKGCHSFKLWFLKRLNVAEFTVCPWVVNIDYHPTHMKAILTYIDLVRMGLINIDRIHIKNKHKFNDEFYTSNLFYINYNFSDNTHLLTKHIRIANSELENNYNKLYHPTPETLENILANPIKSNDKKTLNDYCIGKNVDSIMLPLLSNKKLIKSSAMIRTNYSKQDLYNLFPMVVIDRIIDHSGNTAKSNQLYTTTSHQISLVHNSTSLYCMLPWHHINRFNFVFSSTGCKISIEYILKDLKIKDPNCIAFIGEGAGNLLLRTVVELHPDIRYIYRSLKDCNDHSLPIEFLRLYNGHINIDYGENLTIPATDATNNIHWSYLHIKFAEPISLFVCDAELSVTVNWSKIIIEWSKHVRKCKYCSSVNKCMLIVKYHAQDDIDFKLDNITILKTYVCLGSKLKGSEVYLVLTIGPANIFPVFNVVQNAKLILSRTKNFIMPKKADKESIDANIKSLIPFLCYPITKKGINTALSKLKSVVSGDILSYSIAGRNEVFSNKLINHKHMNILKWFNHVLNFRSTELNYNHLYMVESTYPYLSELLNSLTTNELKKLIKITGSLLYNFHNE
# recombinant RSV complex, sequence (P03421 whole entry, further chain): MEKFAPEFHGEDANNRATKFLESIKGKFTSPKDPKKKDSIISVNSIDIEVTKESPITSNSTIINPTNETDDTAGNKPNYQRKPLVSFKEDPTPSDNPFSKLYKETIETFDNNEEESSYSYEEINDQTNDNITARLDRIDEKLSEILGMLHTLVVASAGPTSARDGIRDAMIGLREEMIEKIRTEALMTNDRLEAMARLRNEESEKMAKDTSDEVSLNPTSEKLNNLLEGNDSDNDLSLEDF
Structure (SMILES),CC50 at 5 days [1] [µM],IC50 [2] [µM],"EC50 [3, 4] [µM]","EC50 [3, 5] [µM]"
COc1ccc(C(O)(CNC(=O)c2ccc3c(c2)NC(=O)CO3)C(F)(F)F)nc1-c1ccc(F)c(Cl)c1 (stereo not drawn) [Compound 258],10 to 100,< 1,< 1,–
COc1ccc(C(O)(CNC(=O)c2ccc(OC3CCNC3=O)cc2)C(F)(F)F)nc1-c1ccc(F)c(Cl)c1 (stereo not drawn) [Compound 261],10 to 100,< 1,< 1,–
COc1ccc(C(O)(CNC(=O)c2ccc(OCCO)c(Cl)c2)C(F)(F)F)nc1-c1ccc(F)c(Cl)c1 (stereo not drawn) [Compound 262],10 to 100,< 1,< 1,–
COc1ccc(C(O)(CNC(=O)c2ccc3ncn(C)c3c2)C(F)(F)F)nc1-c1ccc(F)c(Cl)c1 (stereo not drawn) [Compound 264],10 to 100,< 1,1 to 50,–
COc1ccc(C(O)(CNC(=O)c2ccc3c(c2)ncn3C)C(F)(F)F)nc1-c1ccc(F)c(Cl)c1 (stereo not drawn) [Compound 265],10 to 100,< 10,1 to 50,–
COc1ccc(C(O)(CNC(=O)c2ccc3ncoc3c2)C(F)(F)F)nc1-c1ccc(F)c(Cl)c1 (stereo not drawn) [Compound 266],10 to 100,< 1,1 to 50,–
COc1ccc(C(O)(CNC(=O)c2ccc3[nH]c(=O)n(C)c3c2)C(F)(F)F)nc1-c1ccc(F)c(Cl)c1 (stereo not drawn) [Compound 267],10 to 100,< 1,< 1,–
COc1ccc(C(O)(CNC(=O)c2ccc3c(c2)[nH]c(=O)n3C)C(F)(F)F)nc1-c1ccc(F)c(Cl)c1 (stereo not drawn) [Compound 268],10 to 100,< 10,1 to 50,–
COc1cc(C(=O)NCC(O)(c2ccc(OC)c(-c3ccc(F)c(Cl)c3)n2)C(F)(F)F)ccc1OCC1(O)CC1 (stereo not drawn) [Compound 270],10 to 100,< 1,–,< 1
CC(C)(N)c1cc(-c2ccc(F)c(Cl)c2)nc(C(O)(CNC(=O)c2cscn2)C(F)(F)F)c1 (stereo not drawn) [Compound 277],10 to 100,< 10,1 to 50,–
CC(C)(N)c1cc(-c2ccc(F)c(Cl)c2)nc(C(O)(CNC(=O)c2cncs2)C(F)(F)F)c1 (stereo not drawn) [Compound 278],10 to 100,< 1,1 to 50,–
Cc1nc(C(=O)NCC(O)(c2cc(C(C)(C)N)cc(-c3ccc(F)c(Cl)c3)n2)C(F)(F)F)cs1 (stereo not drawn) [Compound 279],10 to 100,< 1,1 to 50,–
COc1cc(C(=O)NCC(O)(c2cc(C(C)(C)N)cc(-c3ccc(F)c(Cl)c3)n2)C(F)(F)F)ccc1O[C@@H]1CCNC1=O (stereo partly drawn) [Compound 285],10 to 100,< 1,< 1,–
COc1cc(C(=O)NCC(C)(O)c2cc3c(c(-c4ccc(F)c(Cl)c4)n2)NCC3)ccc1OCCF (stereo not drawn) [Compound 286],10 to 100,< 10,1 to 50,–
COc1cc(C(=O)NCC(=O)c2cc3c(c(-c4c[nH]c5c(F)cccc45)n2)OCC3)ccc1OCCF [Compound 287],> 100,< 1,< 1,–
COc1cc(C(=O)NCC(C)(O)c2cc3cc[nH]c3c(-c3ccc(F)c(Cl)c3)n2)ccc1OCCF (stereo not drawn) [Compound 290],10 to 100,< 10,–,1 to 50
COc1cc(C(=O)NCC(O)(c2cc3c(c(-c4c[nH]c5c(F)cccc45)n2)OCC3)C2CC2)ccc1OCCO (stereo not drawn) [Compound 297],10 to 100,< 1,< 1,–
COc1cc(C(=O)NCC(O)(c2cc3c(c(-c4ccc(F)c(C(C)F)c4)n2)OCCC3(C)C)C2CC2)ccc1OCCO (stereo not drawn) [Compound 299],10 to 100,< 1,< 1,–
COc1cc(C(=O)NCC(=O)c2cc3c(c(-c4ccc(F)c(Cl)c4)n2)OCC3C)ccc1OCCO (stereo not drawn) [Compound 305],10 to 100,< 1,< 1,–
CCc1cc(-c2ccc(F)cc2)nc(C(C)(O)CNC(=O)c2ccc(OCCO)c(OC)c2)c1 (stereo not drawn) [Compound 353],> 100,< 1,< 1,–
